Results on 30 molecules are retold here after patent publication US8440654B2, “Thieno- and furo-pyrimidine modulators of the histamine H4 receptor” (Janssen Pharmaceutica NV, priority 2007, dated 2013).

Each structure is given as a SMILES string. Counter-ions that a name gives are not always drawn.

T1 sequence (Q9H3N8 whole entry): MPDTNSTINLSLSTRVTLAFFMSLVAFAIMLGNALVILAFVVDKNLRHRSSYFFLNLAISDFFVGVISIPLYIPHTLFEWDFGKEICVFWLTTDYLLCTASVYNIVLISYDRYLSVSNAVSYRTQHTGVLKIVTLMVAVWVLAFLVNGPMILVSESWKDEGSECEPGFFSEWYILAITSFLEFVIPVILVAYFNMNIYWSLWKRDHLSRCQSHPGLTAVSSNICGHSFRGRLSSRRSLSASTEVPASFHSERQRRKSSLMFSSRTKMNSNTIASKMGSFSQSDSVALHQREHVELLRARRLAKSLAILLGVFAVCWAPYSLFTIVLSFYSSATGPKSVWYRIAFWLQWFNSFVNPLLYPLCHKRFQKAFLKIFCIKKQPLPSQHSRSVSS

The assay concerns the target T1, human histamine H4 receptor (Homo sapiens, UniProt Q9H3N8).
T1 construct: expressed in transfected cells; host or cells: SK-N-MC cells or COS7 cells, transiently transfected with pH4R; membrane preparation
The assay can be described thus: Binding Assay on Recombinant Human Histamine H4 Receptor. The settings on record: competition binding with 3H-histamine, membranes of SK-N-MC or COS7 cells transfected with human H4R; average of results obtained. How it is done:
Biological Methods: Binding Assay on Recombinant Human Histamine H4 Receptor.
SK-N-MC cells or COS7 cells were transiently transfected with pH4R and grown in 150 cm^2 tissue culture dishes. Cells were washed with saline solution, scraped with a cell scraper and collected by centrifugation (1000 rpm, 5 min). Cell membranes were prepared by homogenization of the cell pellet in 20 mM Tris-HCl with a polytron tissue homogenizer for 10 sec at high speed. Homogenate was centrifuged at 1000 rpm for 5 min at 4° C. The supernatant was then collected and centrifuged at 20,000×g for 25 min at 4° C. The final pellet was resuspended in 50 mM Tris-HCl. Cell membranes were incubated with ^3H-histamine (5-70 nM) in the presence or absence of excess histamine (10,000 nM). Incubation occurred at room temperature for 45 min. Membranes were harvested by rapid filtration over Whatman GF/C filters and washed 4 times with ice-cold 50 mM Tris HCl. Filters were then dried, mixed with scintillant and counted for radioactivity. SK-N-MC or COS7 cells expressing human histamine H4 receptor were used to measure the affinity of binding of other compounds and their ability to displace ^3H-ligand binding by incubating the above-described reaction in the presence of various concentrations of inhibitor or compound to be tested. For competition binding studies using ^3H-histamine, K values were calculated, based on an experimentally determined KD value of 5 nM and a ligand concentration of 5 nM, according to Y.-C.
A word on the Ki: it is the equilibrium dissociation constant of an inhibitor or competing ligand from its target. Consider `Nc1nc(N2CCCNCC2)c2sc3c(c2n1)CCCC3` [Example 37, 4-(1,4-Diazepan-1-yl)-6,7,8,9-tetrahydro[1]benzo-thieno[3,2-d]pyrimidin-2-amine hydrochloric acid salt], for which the Ki was found to be 15 nM.

`CN[C@@H]1CN(c2nc(N)nc3c4c(sc23)CCCC4)C[C@@H]1O` [Example 38, (3S,4S)-1-(2-Amino-6,7,8,9-tetrahydro[1]benzothieno[3,2-d]pyrimidin-4-yl)-4-(methyl-amino)pyrrolidin-3-of tri-fluoroacetic acid salt]: the Ki turned out to be 300 nM.

Consider `CN(C)[C@@H]1CCN(c2nc(N)nc3c4c(sc23)CCCC4)C1` [Example 39, 4-[(3R)-3-(Dimethyl-amino)pyrrolidin-1-yl]-6,7,8,9-tetrahydro[1]benzo-thieno[3,2-d]pyrimidin-2-amine trifluoroacetic acid salt], for which the Ki stood at 62 nM.

Consider `NC[C@H]1CCN(c2nc(N)nc3c4c(sc23)CCCC4)C1` [Example 41, 4-[(3R)-3-(Amino-methyl)pyrrolidin-1-yl]-6,7,8,9-tetrahydro[1]benzo-thieno[3,2-d]pyrimidin-2-amine trifluoroacetic acid salt], for which the Ki was 1010 nM.

As to `Nc1nc(N2CC(N)C2)c2sc3c(c2n1)CCCC3` [Example 42, 4-(3-Aminoazetidin-1-yl)-6,7,8,9-tetrahydro[1]benzo-thieno[3,2-d]pyrimidin-2-amine trifluoroacetic acid salt], the Ki worked out at 467 nM.

Consider `CC1CCc2sc3c(N4CCN(C)CC4)nc(N)nc3c2C1` (stereo not drawn) [Example 43, 8-Methyl-4-(4-methyl-piperazin-1-yl)-6,7,8,9-tetrahydro[1]benzo-thieno[3,2-d]pyrimidin-2-amine trifluoroacetic acid salt], for which the Ki is 7 nM.

Regarding `CN[C@H]1CCN(c2nc(N)nc3c4c(sc23)CCC(C)C4)C1` (stereo partly drawn) [Example 44, 8-Methyl-4-[(3R)-3-(methyl-amino)pyrrolidin-1-yl]-6,7,8,9-tetrahydro[1]benzo-thieno[3,2-d]pyrimidin-2-amine trifluoroacetic acid salt], the Ki is 11 nM.

As for `CC1CCc2sc3c(N4C[C@H]5CCCN[C@H]5C4)nc(N)nc3c2C1` (stereo partly drawn) [Example 45, 8-Methyl-4-[(4aR,7aR)-octa-hydro-6H-pyrrolo-[3,4-b]pyridin-6-yl]-6,7,8,9-tetra-hydro[1]benzothieno[3,2-d]pyrimidin-2-amine trifluoroacetic acid salt], the Ki worked out at 4 nM.

For the molecule `CN1CCN(c2nc(N)nc3c4c(sc23)CCCCC4)CC1` [Example 46, 4-(4-Methylpiperazin-1-yl)-7,8,9,10-tetrahydro-6H-cyclohepta[4,5]thieno[3,2-d]pyrimidin-2-amine tri-fluoroacetic acid salt], the Ki stood at 21 nM.

For `Nc1nc(N2C[C@H]3CCCN[C@H]3C2)c2sc3c(c2n1)CCCCC3` [Example 48, 4-[(4aR,7aR)-Octahydro-6H-pyrrolo[3,4-b]pyridin-6-yl]-7,8,9,10-tetrahydro-6H-cyclohepta[4,5-d]pyrimidin-2-amine trifluoroacetic acid salt], the Ki came to 3 nM.

Regarding `NCCN1CCN(c2nc(N)nc3c4c(sc23)CCCC4)CC1` [Example 49, 4-[4-(2-Aminoethyl)piper-azin-1-yl]-6,7,8,9-tetrahy-dro[1]benzothieno[3,2-d]pyrimidin-2-amine tri-fluoroacetic acid salt], the Ki is 2260 nM.

`CC(C)N1CCN(c2nc(N)nc3c4c(sc23)CCCC4)CC1` [Example 50, 4-[4-(1-Methylethyl)piper-azin-1-yl]-6,7,8,9-tetrahy-dro[1]benzothieno[3,2-d]pyrimidin-2-amine trifluoroacetic acid salt]: the Ki stood at 647 nM.

In the case of `CCN1CCN(c2nc(N)nc3c4c(sc23)CCCC4)CC1` [Example 51, 4-(4-Ethylpiperazin-1-yl)-6,7,8,9-tetrahydro[1]benzo-thieno[3,2-d]pyrimidin-2-amine trifluoroacetic acid salt], the Ki is 205 nM.

Regarding `Nc1nc(N2CCN3CCCC3C2)c2sc3c(c2n1)CCCC3` (stereo not drawn) [Example 52, 4-(Hexahydropyrrolo[1,2-a]pyrazin-2(1H)-yl-6,7,8,9-tetrahydro[1]benzothieno[3,2-d]pyrimidin-2-aminetrifluoroacetic acid salt], the Ki turned out to be 67 nM.

`Nc1nc(N2CCN3CCCCC3C2)c2sc3c(c2n1)CCCC3` (stereo not drawn) [Example 53, 4-(Octahydro-2H-pyrido[1,2-a]pyrazin-2-yl)-6,7,8,9-tetrahydro[1]benzothieno-3,2-d]pyrimidin-2-amine trifluoroacetic acid salt]: the Ki turned out to be 387 nM.

Consider `Nc1nc(N2CCn3cnnc3C2)c2sc3c(c2n1)CCCC3` [Example 54, 4-(5,6-Dihydro[1,2,4-a]pyrazin-7(8H)-yl)-6,7,8,9-tetrahydro[1]benzothieno[3,2-d]pyrimidin-2-amine trifluoroacetic acid salt], for which the Ki came to 1610 nM.

As for `CN[C@H]1CCN(c2nc(N)nc3c4c(sc23)CCCC4)C1` [Example 55, 4-[(3S)-3-(Methyl-amino)pyrrolidin-1-yl]-6,7,8,9-tetrahydro[1]benzo-thieno[3,2-d]pyrimidin-2-amine trifluoroacetic acid salt], the Ki came out at 33 nM.

With `CN1CCN(c2nc(N)nc3c4c(sc23)CCC(F)(F)C4)CC1` [Example 57, 8,8-Difluoro-4-(4-methyl-piperazin-1-yl)-6,7,8,9-tetrahydro[1]benzothieno[3,2-d]pyrimidin-2-amine trifluoroacetic acid salt], the Ki was determined as 23 nM.

Turning to `Nc1nc(N2CCNCC2)c2sc3c(c2n1)CC(F)(F)CC3` [Example 58, 8,8-Difluoro-4-piperazin-1-yl-6,7,8,9-tetrahydro[1]ben-zothieno[3,2-d]pyrimidin-2-amine trifluoroacetic acid salt], the Ki turned out to be 14 nM.

Take `CN[C@@H]1CCN(c2nc(N)nc3c4c(sc23)CCC(F)(F)C4)C1` [Example 59, 8,8-Difluoro-4-[(3R)-3-(methylamino)pyrrolidin-1-yl]-6,7,8,9-tetrahydro[1]benzothieno[3,2-d]pyrimidin-2-amine trifluoroacetic acid salt]: the Ki worked out at 9 nM.

For `CN[C@H]1CCN(c2nc(N)nc3c4c(sc23)CCC(F)(F)C4)C1` [Example 112, 8,8-Difluoro-4-[(3S)-3-(methylamino)pyrrolidin-1-yl]-6,7,8,9-tetrahydro[1]benzothieno[3,2-d]pyrimidin-2-amine trifluoroacetate], the Ki came out at 6 nM.

`Nc1nc(N2CC[C@@H](N)C2)c2sc3c(c2n1)CC(F)(F)CC3` [Example 113, 4-[(3R)-3-Aminopyrrolidin-1-yl]-8,8-difluoro-6,7,8,9-tetrahydro[1]benzothieno[3,2-d]pyrimidin-2-amine hydrochloride]: the Ki was 1.1 nM.

As to `Nc1nc(N2CCCNCC2)c2sc3c(c2n1)CC(F)(F)CC3` [Example 114, 4-(1,4-Diazepan-1-yl)-8,8-difluoro-6,7,8,9-tetrahydro[1]benzothieno[3,2-d]pyrimidin-2-amine trifluoroacetate], the inhibition constant (Ki) came out at 2.1 nM.

On to `CN(CCN)c1nc(N)nc2c3c(sc12)CCC(F)(F)C3` [Example 115, N^4-(2-Aminoethyl)-8,8-difluoro-N^4-methyl-6,7,8,9-tetrahydro[1]benzothieno[3,2-d]pyrimidine-2,4-diamine trifluoroacetate], for which the Ki stood at 21 nM.

Take `CN[C@@H]1CCN(c2nc(N)nc3c4c(oc23)CCC(F)(F)C4)C1` [Example 116, 8,8-Difluoro-4-[(3R)-3-(methylamino)pyrrolidin-1-yl]-6,7,8,9-tetrahydro[1]benzofuro[3,2-d]pyrimidin-2-amine hydrochloride]: the Ki turned out to be 0.48 nM.

Regarding `Nc1nc(N2CC[C@@H](N)C2)c2oc3c(c2n1)CC(F)(F)CC3` [Example 117, 4-[(3R)-3-Aminopyrrolidin-1-yl]-8,8-difluoro-6,7,8,9-tetrahydro[1]benzofuro[3,2-d]pyrimidin-2-amine hydrochloride], the Ki was determined as 6.8 nM.

Consider `Nc1nc(N2CCNCC2)c2oc3c(c2n1)CC(F)(F)CC3` [Example 118, 8,8-Difluoro-4-piperazin-1-yl-6,7,8,9-tetrahydro[1]benzofuro[3,2-d]pyrimidin-2-amine hydrochloride], for which the Ki is 29 nM.

For `Nc1nc(N2CC[C@H](N)C2)c2sc3c(c2n1)CC(F)(F)CC3` [Example 119, 4-[(3S)-3-Aminopyrrolidin-1-yl]-8,8-difluoro-6,7,8,9-tetrahydro[1]benzothieno[3,2-d]pyrimidin-2-amine hydrochloride], the Ki was found to be 21 nM.

With `Nc1nc(N2CC(N)C2)c2sc3c(c2n1)CC(F)(F)CC3` [Example 120, 4-(3-Aminoazetidin-1-yl)-8,8-difluoro-6,7,8,9-tetrahydro[1]benzothieno[3,2-d]pyrimidin-2-amine (free amine)], the Ki came out at 170 nM.

Take `CN1C[C@@H]2CN(c3nc(N)nc4c5c(sc34)CCC(F)(F)C5)C[C@@H]2C1` [Example 121, 8,8-Difluoro-4-[(3aR,6aS)-5-methylhexahydropyrrolo[3,4-c]pyrrol-2(1H)-yl]-6,7,8,9-tetrahydro[1]benzothieno[3,2-d]pyrimidin-2-amine (free amine)]: the Ki came to 150 nM.
